Results published in patent US20170291905A1, “ARGININE […] INHIBITORS AND USES THEREOF” (Epizyme, Inc., priority 2014, published 2017).
Structures can show the parent of a compound that is named as a salt.

Each compound was assayed against T1, PRMT1 (Homo sapiens, UniProt Q99873) (assay: RKO methylation assay, In Cell Western (ICW) for mono-methyl arginine and DNA content). Conditions: RKO cells, 72 hours, mono-methyl arginine signal normalised to DRAQ5, percent activation.
T1 construct: host or cells: RKO cells
Type: cell-based
Description: RKO Methylation Assay RKO adherent cells were purchased from ATCC (American Type Culture Collection), Manassas, Va., USA. DMEM/Glutamax medium, penicillin-streptomycin, heat inactivated fetal bovine serum, 0.05% trypsin and D-PBS were purchased from Life Technologies, Grand Island, N.Y., USA. Odyssey blocking buffer, 800CW goat anti-rabbit IgG (H+L) antibody, and Licor Odyssey infrared scanner were purchased from Licor Biosciences, Lincoln, Nebr., USA. Mono-methyl arginine antibody was purchased from Cell Signaling Technology, Danvers, Mass., USA. Methanol was purchased from VWR, Franklin, Mass., USA. 10% Tween 20 was purchased from KPL, Inc., Gaithersburg, Md., USA. DRAQ5 was purchased from Biostatus Limited, Leicestershire, UK. RKO adherent cells were maintained in growth medium (DMEM/Glutamax medium supplemented with 10% v/v heat inactivated fetal bovine serum and 100 units/mL penicillin-streptomycin) and cultured at 37° C. under 5% CO2. Cell Treatment, in Cell Western (ICW) for Detection of Mono-Methyl Arginine and DNA Content. RKO cells were seeded in assay medium at a concentration of 20,000 cells per mL to a poly-D-lysine coated 384 well culture plate (BD Biosciences 356697) with 50 μL per well. Compound (100 nL) from a 96-well source plate was added directly to 384 well cell plate. Plates were incubated at 37° C., 5% CO2 for 72 hours. After three days of incubation, plates were brought to room temperature outside of the incubator for ten minutes and blotted on paper towels to remove cell media. 50 μL of ice cold 100% methanol was added directly to each well and incubated for 30 min at room temperature. After 30 min, plates were transferred to a Biotek EL406 plate washer and washed 2 times with 100 μL per well of wash buffer (1×PBS). Next 60 μL per well of Odyssey blocking buffer (Odyssey Buffer with 0.1% Tween 20 (v/v)) were added to each plate and incubated 1 hour at room temperature. Blocking buffer was removed and 20 μL per well of primary antibody was added (mono-methyl arginine diluted 1:200 in Odyssey buffer with 0.1% Tween 20 (v/v)) and plates were incubated overnight (16 hours) at 4° C. Plates were washed 5 times with 100 μL per well of wash buffer. Next 20 μL per well of secondary antibody was added (1:200 800CW goat anti-rabbit IgG (H+L) antibody, 1:1000 DRAQ5 (Biostatus limited) in Odyssey buffer with 0.1% Tween 20 (v/v)) and incubated for 1 hour at room temperature. The plates were washed 5 times with 100 μL per well wash buffer then 2 times with 100 μL per well of water. Plates were allowed to dry at room temperature then imaged on the Licor Odyssey machine which measures integrated intensity at 700 nm and 800 nm wavelengths. Both 700 and 800 channels were scanned. […] Each plate included fourteen control wells of DMSO only treatment (minimum activation) as well as fourteen control wells for maximum activation treated with 20 μM of a reference compound. The average of the ratio values for each control type was calculated and used to determine the percent activation for each test well in the plate. Reference compound was serially diluted three-fold in DMSO for a total of nine test concentrations, beginning at 20 μM. Percent activation was determined and EC30 curves were generated using triplicate wells per concentration of compound.

T1 sequence (Q99873 whole entry): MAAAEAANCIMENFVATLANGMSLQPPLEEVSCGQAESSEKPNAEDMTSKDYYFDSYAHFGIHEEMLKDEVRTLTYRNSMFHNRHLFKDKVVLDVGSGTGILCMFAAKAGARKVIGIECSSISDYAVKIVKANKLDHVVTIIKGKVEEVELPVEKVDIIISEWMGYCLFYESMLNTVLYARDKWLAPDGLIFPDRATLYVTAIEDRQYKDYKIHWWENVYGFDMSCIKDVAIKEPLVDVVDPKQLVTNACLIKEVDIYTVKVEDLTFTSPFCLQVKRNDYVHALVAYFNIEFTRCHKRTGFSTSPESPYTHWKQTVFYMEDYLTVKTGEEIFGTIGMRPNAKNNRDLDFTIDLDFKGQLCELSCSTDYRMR

PRMT1 RGG ICW EC30 [µM] | SMILES
>5.0 | CC[C@]12CC[C@](CC)(C[C@@H](c3n[nH]cc3CN(C)CCNC)C1)O2 [compound 38, N1-((3-((1R,3s,5S)-1,5-diethyl-8-oxabicyclo[3.2.1]octan-3-yl)-1H-pyrazol-4-yl)methyl)-N1,N2-dimethylethane-1,2-diamine]
0.3212 | CNCCN(C)Cc1ccnn1[C@H]1CC[C@]2(CC1)CC(C)(C)CO2 [compound 50, N1-((1-((5r,8r)-3,3-dimethyl-1-oxaspiro[4.5]decan-8-yl)-1H-pyrazol-5-yl)methyl)-N1,N2-dimethylethane-1,2-diamine]
0.3736 | Cc1[nH]nc([C@H]2CC[C@]3(CC2)CC(C)(C)CO3)c1CN(C)CCN [compound 52, N1-((3-((5r,8r)-3,3-dimethyl-1-oxaspiro[4.5]decan-8-yl)-5-methyl-1H-pyrazol-4-yl)methyl)-N1-methylethane-1,2-diamine]
0.04032 | CNCCN(C)Cc1c(C)[nH]nc1[C@H]1CC[C@@]2(CC1)CC(C)(C)CO2 [compound 57]
0.08334 | CNCCN(C)Cc1c(C)[nH]nc1[C@H]1CC[C@]2(CC1)CC(C)(C)CO2 [compound 58]
0.1931 | Cc1[nH]nc(C2CCC3(CC2)CC(C)(C)CO3)c1CN(C)CCN (stereo not shown) [compound 59]
0.00696 | CNCCN(C)Cc1scnc1[C@H]1CC[C@@]2(CC1)CC(C)(C)CO2 [compound 62]
0.119 | CNCCN(C)Cc1nn(C)nc1[C@H]1CC[C@@]2(CC1)CC(C)(C)CO2 [compound 64]
0.0339 | CNCCN(C)Cc1nn[nH]c1[C@H]1CC[C@@]2(CC1)CC(C)(C)CO2 [compound 67]
0.3894 | CNCCN(C)Cc1cncn1[C@H]1CC[C@@]2(CC1)CC(C)(C)CO2 [compound 76]
0.05311 | CNCCN(C)Cc1nc(C)sc1[C@H]1CC[C@@]2(CC1)CC(C)(C)CO2 [compound 77]
0.02959 | CNCCN(C)Cc1sc(C)nc1[C@H]1CC[C@@]2(CC1)CC(C)(C)CO2 [compound 78]
0.06159 | CN(CCN)Cc1nn(C)cc1[C@H]1CC[C@@]2(CC1)CC(C)(C)CO2 [compound 80]
0.09594 | CNCCN(C)Cc1nn(C)cc1[C@H]1CC[C@@]2(CC1)CC(C)(C)CO2 [compound 81]
0.05796 | CNCCN(C)Cc1ncsc1[C@H]1CC[C@@]2(CC1)CC(C)(C)CO2 [compound 83]
0.05469 | CNCCN(C)Cc1scnc1[C@H]1CC[C@]2(CC1)CC(C)(C)CO2 [compound 84]
0.4436 | CNCCN(C)Cc1nn(C)nc1C1CCC2(CC1)CC(C)(C)CO2 (stereo not shown) [compound 86]

PRMT1 RGG ICW EC30 [µM] | SMILES
0.7604 | CNCCN(C)Cc1nn[nH]c1[C@H]1CC[C@]2(CC1)CC(C)(C)CO2 [compound 89]
>10 | CNCCN(C)Cc1c(Cl)ncn1[C@H]1CC[C@]2(CC1)CC(C)(C)CO2 [compound 97]
0.09553 | CNCCN(C)Cc1nc(C)sc1[C@H]1CC[C@]2(CC1)CC(C)(C)CO2 [compound 99]
0.07586 | CNCCN(C)Cc1sc(C)nc1[C@H]1CC[C@]2(CC1)CC(C)(C)CO2 [compound 100]
0.4467 | CN(CCN)Cc1nn(C)cc1[C@H]1CC[C@]2(CC1)CC(C)(C)CO2 [compound 102]
0.5974 | CNCCN(C)Cc1nn(C)cc1[C@H]1CC[C@]2(CC1)CC(C)(C)CO2 [compound 103]
0.04527 | CN(CCN)Cc1c[nH]nc1[C@H]1CC[C@]2(CC1)CC(C)(C)CO2 [compound 106]
>10 | CNCCN(C)Cc1c(C)noc1[C@H]1CC[C@]2(CC1)CC(C)(C)CO2 [compound 114]
0.8632 | CNCCN(C)Cc1nocc1[C@H]1CC[C@@]2(CC1)CC(C)(C)CO2 [compound 117]
0.1175 | CCOCC1(COCC)CCC(c2n[nH]cc2CN(C)CCN(C)C)CC1 [compound 121]
0.02211 | CCOCC1(COCC)CCC(c2nn(C)cc2CN(C)CCNC)CC1 [compound 122]
0.0178 | CCOCC1(COCC)CCC(c2n[nH]cc2CN(C)CCN)CC1 [compound 123]
0.05587 | CCOCC1(COCC)CCC(c2nn(C)cc2CN(C)CCN)CC1 [compound 124]
0.01488 | CNCCN(C)Cc1c[nH]nc1C1CCC2(CC1)CC(C)(C)OC2=O (stereo not shown) [compound 125]
0.01526 | CNCCN(C)Cc1c[nH]nc1[C@H]1CC[C@@]2(CC1)COC(C)(C)C2 [compound 126, N1-((3-((5r,8r)-3,3-dimethyl-2-oxaspiro[4.5]decan-8-yl)-1H-pyrazol-4-yl)methyl)-N1,N2-dimethylethane-1,2-diamine]
0.00848 | CNCCN(C)Cc1c[nH]nc1[C@H]1CC[C@]2(CCCCO2)CC1 [compound 127, methyl([2-[methyl([3-[(6s,9r)-1-oxaspiro[5.5]undecan-9-yl]-1H-pyrazol-4-yl]methyl)amino]ethyl])amine bistrifluoroacetic acid salt]

SMILES | PRMT1 RGG ICW EC30 [µM]
CCOCC1(COCC)CC=C(c2n[nH]cc2CN(C)CCNC)CC1 [compound 60] | 0.04467
CN(CCN)Cc1c[nH]nc1[C@H]1CC[C@@]2(CC1)CC(C)(C)CO2 [compound 105] | 0.01212
CNCCN(C)Cc1n[nH]cc1[C@H]1CC[C@@]2(CC1)CC(C)(C)CO2 [compound 115] | 0.02034
CNCCN(C)Cc1n[nH]cc1[C@H]1CC[C@]2(CC1)CC(C)(C)CO2 [compound 116] | 0.1545
